Test results reported in patent US11981664B2, “Photoresponsive nutlin derivatives and uses thereof” (Rijksuniversiteit Groningen, priority 2018, dated 2024).

Legend:
[1] = system: p53 protein level in RPE-1 cells; assay: Immunofluorescent staining of nuclear p53 protein in RPE-1 cells; assay type: cell-based; conditions: for nuclear p53 protein levels: 4 h after addition, regardless of irradiation with 400 nm light
Experimental: (§1) FIG. 3: Functional p53 induction upon λ=400 nm irradiation in PPG-idasanutlin treated cells, a) RPE-1 cells were treated with indicated compounds (all 10 μM final) and fixed 4 h after 5 min (−/+400 nm) irradiation. Anti-p53 staining indicates p53 protein expression in the nucleus. […] Error bars represent mean +sd, ****P<0.0001 (unpaired t-test), Dots represent individual cells, n>125 cells per condition combined from 2 independent experiments. c) Representative western blot showing p53 protein levels in cells 4 h after addition of DMSO or PPG-idasanutlin and irradiation for indicated time periods. Hsp90 is used as a loading control. d) Selective outgrowth disadvantage in RPE-1 cells 6 days after PPG-idasanutlin treatment +400 nm irradiation for 5 min. e) Representative Western blot showing p53 protein levels in three cell lines (U2OS, RKO, BJhTert) 4 h after indicated treatments. f) Selective outgrowth inhibition in indicated cell lines 6 days after PPG-idasanutlin treatment +400 nm irradiation for 5 min. In all the experiments <1% DMSO was used.
RPE-1 cells were plated on coverslips at equal density and treated with indicated drugs before −/+irradiation (400 nm for 5 min). For immune fluorescent staining, cells were fixed 4 h after irradiation by wash out of the medium, single wash in phosphate-buffered saline (1× PBS) and incubation in 3.7% formaldehyde for 5 min. Next, fixed cells were permeabilized with 0.2% TritonX in 1× PBS for 5 min before blocking in 3% […] (BSA) in 1× PBS supplemented with 0.1% Tween (PBST) for 1 h (all at room temperature (RT)). Cells were incubated overnight at 4° C. with primary antibody in PBST with 3% BSA, washed three times with PBST, and incubated with secondary antibody and DAPI in PBST with 3% BSA for 2 h at RT. After a final three time wash with PBST coverslips were mounted on microscopic analysis slides using ProLong Gold antifade reagent (Thermo Fisher). The following antibodies were used: anti-p53 (sc-126, Santa Cruz, 1/1000), phalloidin (A12380, Molecular Probes, 1/1000) and goat anti-mouse/Alexa. 488 (A11029, Molecular Probes, 1/1000).
Next, the biological activity of PPG-idasanutlin was investigated. Initial studies aimed at confirming a difference in p53 activation upon λ=400 nm light exposure after addition of the protected idasanutlin derivative (PPG-idasanutlin). To that end, non-transformed, p53-proficient retinal pigment epithelial cells (RPE-1) were treated with either DMSO (control), nutlin-3, idasanutlin or PPG-idasanutlin, followed by −/+irradiation with 400 nm light (FIG. 3).

[2] = Photochemical behavior (photocleavage) by UV-vis spectroscopy and UPLC-MS in aqueous buffer; assay type: physicochemical; conditions: λ=400 nm light, aqueous buffer pH=7.0
Experimental: Thin Layer Chromatography (TLC) was performed using commercial Kieselgel 60, F254 silica gel plates with fluorescence-indicator UV254 (Merck, TLC silica gel 60 F254). For detection of components, UV light at λ=254 nm or λ=365 nm was used. Alternatively, oxidative staining using aqueous basic potassium permanganate solution (KMnO4) or aqueous acidic cerium phosphomolybdic acid solution (Seebach's stain) was used. Flash chromatography was performed on silica gel (Silicycle Siliaflash P60, […], 230-400 mesh). Drying of solutions was performed with MgSO4 and volatiles were removed with a rotary evaporator. Nuclear Magnetic Resonance spectra were measured with an Agilent Technologies 400-MR (400/54 Premium Shielded) spectrometer (400 MHz). All spectra were measured at room temperature (22-24° C.). Chemical shifts for ^1H- and ^13C-NMR measurements were determined relative to the residual solvent peaks in ppm (δH 7.26 for CHCl3, 2.50 for DMSO and 2.05 ppm for Acetone, δC 77.16 for CHCl3 and 39.52 for DMSO). The following abbreviations are used to indicate signal multiplicity: s, singlet; d, doublet; t, triplet; q, quartet; m, multiplet; brs, broad signal. All ^13C-NMR spectra are ^1H-broadband decoupled. High-resolution mass spectrometric measurements were performed on a Thermo scientific LTQ Orbitrap XL with ESI ionization. For spectroscopic measurements, solutions in Uvasol® grade solvents were measured in a 10 mm quartz cuvette. UV-Vis absorption spectra were recorded on an Agilent 8453 UV-Visible absorption Spectrophotometer.
(§2) Following the synthesis of PPG-idasanutlin as described in Example 1, its photochemical behavior under physiological conditions was investigated, UV-vis spectroscopy and UPLC-MS measurements were performed in aqueous buffer at pH=7.0. […] Moreover, no significant spontaneous hydrolysis of PPG-idasanutlin for >24 h in buffer at room temperature was observed (data not shown).

[3] = Spontaneous hydrolysis in buffer; assay type: physicochemical; conditions: buffer at room temperature (data not shown)
Experimental: as §2

[4] = system: p53 protein level in RPE-1 cells; assay: p53 protein levels (western blot) in RPE-1 cells, dose-response; assay type: cell-based; conditions: increasing duration of 400 nm irradiation and varying doses, 4 h
Experimental: as §1, with “used. […]” for “used.”
To examine the level of control over the dose-response of idasanutlin (employing PPG-idasanutlin), p53 protein levels in RPE-1 cells were determined by immunostaining after both increasing duration of 400 nm light irradiation and varying doses of PPG-idasanutlin (FIG. 3.c).

RPE-1 cells = assay: Clonogenic outgrowth of RPE-1 cells; assay type: cell-based; conditions: 6 days
Experimental: as §1
(§3) Cells were plated at equal amounts (1000 cells per well) in a 24-wells plate followed by indicated treatments −/+irradiation (400 nm for 5 min) 24 h later. Cells were cultured under normal cell culture conditions for 6 days to allow colony outgrowth. Plates were fixed using 99.8% ice-cold methanol (Honeywell) for 10 min at RT. […]

[5] = system: p53 in BJ-hTert, RKO (colon carcinoma), U2OS (osteosarcoma) cell lines; assay: p53 protein levels (western blot) in additional cell lines; assay type: cell-based; conditions: U2OS (all cell lines tested), after light irradiation, 4 h
Experimental: as §1
RPE-1 cells were plated at equal density in 6-well plates followed by indicated treatments −/+irradiation (400 nm for 5 min) 24 h later. Cells were fixed and collected 4 h after treatment by wash out of the medium, single wash in 1× PBS followed by addition of laemmli buffer (4% SDS, 20% glycerol and 0.125 M Tris HCl). […]

[6] = system: BJ-hTert, RKO (colon carcinoma), U2OS (osteosarcoma) cell lines; assay: Clonogenic outgrowth of additional cell lines; assay type: cell-based; conditions: 6 days after treatment + 400 nm irradiation for 5 min
Experimental: as §1, §3

RPE-1 p53-venus cells = assay: Live-cell imaging of cell division after single-cell laser irradiation; assay type: cell-based; conditions: RPE-1 p53-venus cells irradiated with 405 nm laser (0.1 s pulse) after treatment
Experimental: FIG. 5: Spatiotemporal control of PPG-idasanutlin. a) Schematic representation of microwell set-up for laser irradiation of individual RPE-1 cells to activate PPG-idasanutlin. Laser target area (represented. by red circle) for single pulse (0.1 sec irradiation at 5 um interspaced position) indicated with scale. Individual irradiated cells followed by measuring nuclear p53-venus levels (fluorescence) every 15 min for 3 h after laser irradiation. Approximately 200 cells in each microwell. b) Percentage of cells that divide within 8 h after indicated treatments. Mean±sem of three independent experiments. Error bars indicate 95% confidence intervals. c, d) p53-venus fluorescent signal in individual RPE-1 cells tracked over time after indicated treatments as represented in (a). Line-graphs represent mean of individual cells. n>42 cells per condition pooled from three independent experiments. ***p<0.005, ****p<0.0001 significance in 2-way anova interaction score. […]
(§4) Using RPE-1 cells that stably expressed a venus-tagged version of p53 (p53-venus), p53 protein accumulation could be tracked with high time-resolution in individual cells by live-cell microscopy. […] To determine the functionality of the high spatiotemporal control obtained in this set-up, cell cycle progression was monitored in single cells following laser activation of PPG-idasanutlin (photorelease of idasanutlin).

p53-venus in RPE-1 cells = assay: Live-cell imaging of nuclear p53-venus signal after single-cell laser irradiation; assay type: cell-based
Experimental: FIG. 5: Spatiotemporal control of PPG-idasanutlin. a) Schematic representation of microwell set-up for laser irradiation of individual RPE-1 cells to activate PPG-idasanutlin. Laser target area (represented. by red circle) for single pulse (0.1 sec irradiation at 5 um interspaced position) indicated with scale. Individual irradiated cells followed by measuring nuclear p53-venus levels (fluorescence) every 15 min for 3 h after laser irradiation. Approximately 200 cells in each microwell. b) Percentage of cells that divide within 8 h after indicated treatments. Mean±sem of three independent experiments. Error bars indicate 95% confidence intervals. c, d) p53-venus fluorescent signal in individual RPE-1 cells tracked over time after indicated treatments as represented in (a). Line-graphs represent mean of individual cells. n>42 cells per condition pooled from three independent experiments. ***p<0.005, ****p<0.0001 significance in 2-way anova interaction score.
For live cell imaging, cells were grown in picovitro microwells covered by a silicon membrane^4 in Leibovitz's L-15 (Gibco) CO2-independent medium supplemented with ultraglutamine, penicillin/streptomycin and 10% fetal calf serum. Images for both fixed slides and live cell imaging were obtained using a Delta Vision Elite (applied precision) equipped with a 60× 1.6 NA or 10× 0.75 NA lens (Olympus) and cooled CoolSnap CCD camera. Directed laser irradiation was performed using a brief (0.1 s) pulse of a 405 nm laser on the Delta Vision Elite microscope equipped with a X4 laser module (Applied Precision). Image analysis was done using ImageJ software. […]
as §4, with “idasanutlin). […]” for “idasanutlin).”

cellular outgrowth = assay: Cell outgrowth experiments with PPG photoproduct; assay type: cell-based; conditions: photoproduct formed upon photocleavage of photonutlin
Experimental: Cells were plated at equal amounts (1000 cells per well) in a 24-wells plate followed by indicated treatments −/+irradiation (400 nm for 5 min) 24 h later. Cells were cultured under normal cell culture conditions for 6 days to allow colony outgrowth. Plates were fixed using 99.8% ice-cold methanol (Honeywell) for 10 min at RT. After a 1 time wash in H2O, cells were incubated in 0.2% crystal violet (Sigma) in H2O for at least 3 h at RT to stain cellular outgrowth.

## COc1ccc(C2=N[C@@H](c3ccc(Cl)cc3)[C@@H](c3ccc(Cl)cc3)N2C(=O)N2CCNC(=O)C2)c(OC(C)C)c1 [nutlin-3, reference compound]
[1]; 10 μM
  nuclear p53 protein levels: significant increase

## CCN(CC)c1ccc2c(C(C)OC(=O)c3ccc(NC(=O)[C@@H]4N[C@@H](CC(C)(C)C)[C@](C#N)(c5ccc(Cl)cc5F)[C@H]4c4cccc(Cl)c4F)c(OC)c3)cc(=O)oc2c1 (stereo partly drawn) [PPG-idasanutlin, 1-(7-(diethylamino)-2-oxo-2H-chromen-4-yl)ethyl 4-((2R,3S,4R,5S)-3-(3-chloro-2-fluorophenyl)-4-(4-chloro-2-fluorophenyl)-4-cyano-5-neopentylpyrrolidine-2-carboxamido)-3-methoxybenzoate]
[2]
  irradiation time for major photorelease of idasanutlin: ≤ 5 min
  products observed upon photodeprotection: solely the formation of idasanutlin and hydroxycoumarin
  quantum yield of photocleavage: 0.1%
[3]
  time without significant spontaneous hydrolysis: > 24 h
[1]; 10 μM, irradiated with 400 nm light (5 min), fixed 4 h after
  p53 protein level: significant increase
[1]; without 400 nm irradiation
  p53 stabilization: no functional effect
[4]
  accumulation of p53 protein: clear dose-response dependent accumulation
RPE-1 cells; after irradiation with 400 nm for 5 min
  colony outgrowth: selectively blocked
RPE-1 cells; without 400 nm irradiation
  colony outgrowth (growth inhibition): did not show any growth inhibition
[5]
  stabilization of p53: Selective stabilization
[6]
  cellular outgrowth: dramatic reduction
RPE-1 p53-venus cells
  percentage of cells that divide within 8 h: strongly drops
p53-venus in RPE-1 cells; neighbouring cells not irradiated by the 405 nm laser
  nuclear p53-venus signal: significantly lesser extent
p53-venus in RPE-1 cells; non-irradiated cells from adjacent wells at micrometer distance
  nuclear p53-venus signal: completely absent
p53-venus in RPE-1 cells; single cells irradiated with 405 nm laser, 15 min intervals
  nuclear p53-venus signal: selective stabilization

## CCN(CC)c1ccc2c(C(C)O)cc(=O)oc2c1 (stereo not drawn) [PPG 6, 7-(diethylamino)-4-(1-hydroxyethyl)-2H-chromen-2-one]
Cellular outgrowth
  cellular outgrowth: does not perturb

## COc1cc(C(=O)O)ccc1NC(=O)[C@@H]1N[C@@H](CC(C)(C)C)[C@](C#N)(c2ccc(Cl)cc2F)[C@H]1c1cccc(Cl)c1F [idasanutlin, 4-((2R,3S,4R,5S)-3-(3-chloro-2-fluorophenyl)-4-(4-chloro-2-fluorophenyl)-4-cyano-5-neopentylpyrrolidine-2-carboxamido)-3-methoxybenzoic acid, reference compound]
[1]; 10 μM
  nuclear p53 protein levels: significant increase
